Target: D(1A) dopamine receptor (Homo sapiens, UniProt P21728)
Test: DRUGMATRIX: Dopamine D1 radioligand binding (ligand: [3H] SCH-23390)
Type: cell membranes, CHO, Membrane
Settings: cho; Not Active = under 50% inhibition at 10 µM

D(1A) dopamine receptor, sequence (P21728 whole entry): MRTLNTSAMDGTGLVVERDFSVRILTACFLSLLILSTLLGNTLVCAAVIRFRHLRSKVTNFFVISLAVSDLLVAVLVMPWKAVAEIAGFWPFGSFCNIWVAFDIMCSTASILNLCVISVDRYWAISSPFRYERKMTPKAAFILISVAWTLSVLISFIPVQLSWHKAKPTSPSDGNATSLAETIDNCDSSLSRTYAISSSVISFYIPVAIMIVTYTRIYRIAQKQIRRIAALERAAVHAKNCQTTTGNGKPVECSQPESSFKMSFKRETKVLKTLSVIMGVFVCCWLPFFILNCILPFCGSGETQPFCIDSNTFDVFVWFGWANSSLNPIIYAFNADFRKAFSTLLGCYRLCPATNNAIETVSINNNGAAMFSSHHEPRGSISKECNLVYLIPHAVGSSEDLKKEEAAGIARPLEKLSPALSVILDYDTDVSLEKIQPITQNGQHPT

Q: With `N[C@@H](Cn1ccc(=O)c(O)c1)C(=O)O` [L-MIMOSINE] as the compound, how does the IC50 read?
A: Its IC50 is “Not Active”.

Q: With `C[N+](C)(C)C[C@H](O)CC(=O)[O-]` [LEVOCARNITINE] as the compound, how does the IC50 read?
A: Its IC50 is “Not Active”.

Q: For `C[C@H]1COc2c(N3CCN(C)CC3)c(F)cc3c(=O)c(C(=O)O)cn1c23.C[C@H]1COc2c(N3CCN(C)CC3)c(F)cc3c(=O)c(C(=O)O)cn1c23.O` [LEVOFLOXACIN], which IC50 is on record?
A: The IC50 was “Not Active”.

Q: Which IC50 does the source give for `CCn1cc(C(=O)O)c(=O)c2cc(F)c(N3CCNC(C)C3)c(F)c21` (stereo not drawn) [LOMEFLOXACIN] here?
A: The IC50 was “Not Active”.

Q: With `CN1CCCC(CN2c3ccccc3Sc3ccccc32)C1` (stereo not drawn) [MEPAZINE] as the compound, how does the IC50 read?
A: Its IC50 is “Not Active”.

Q: With `Cc1cccc(C)c1NC(=O)C1CCCCN1C` (stereo not drawn) [MEPIVACAINE] as the compound, how does the IC50 read?
A: The IC50 was “Not Active”.

Q: For `CN(C)C(=N)NC(=N)N` [METFORMIN], which IC50 is on record?
A: Its IC50 is “Not Active”.

Q: Which IC50 does the source give for `CC(C)(C)NCC(O)COc1cccc2c1CC(O)C(O)C2` (stereo not drawn) [NADOLOL] here?
A: The IC50 was “Not Active”.

Target: Tyrosine-protein kinase Lck (Homo sapiens, UniProt P06239)
Sequence (P06239 whole entry): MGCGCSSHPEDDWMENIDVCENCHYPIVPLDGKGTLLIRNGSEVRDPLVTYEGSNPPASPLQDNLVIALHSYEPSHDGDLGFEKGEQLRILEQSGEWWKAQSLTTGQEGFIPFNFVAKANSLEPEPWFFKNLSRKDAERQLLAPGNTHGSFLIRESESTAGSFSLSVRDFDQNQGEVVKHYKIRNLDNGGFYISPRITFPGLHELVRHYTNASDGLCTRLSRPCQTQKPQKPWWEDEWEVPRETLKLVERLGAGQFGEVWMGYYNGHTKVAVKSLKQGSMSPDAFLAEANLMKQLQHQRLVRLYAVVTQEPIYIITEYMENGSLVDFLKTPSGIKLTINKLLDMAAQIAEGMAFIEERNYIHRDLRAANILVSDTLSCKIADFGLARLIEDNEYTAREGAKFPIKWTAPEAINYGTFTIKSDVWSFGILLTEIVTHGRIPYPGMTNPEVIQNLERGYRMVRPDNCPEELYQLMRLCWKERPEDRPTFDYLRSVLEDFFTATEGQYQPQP
Test: DRUGMATRIX: Protein Tyrosine Kinase, LCK enzyme inhibition (substrate: Poly(Glu:Tyr))
Type: cell-based, Insect cells
Settings: insect cells; Not Active = under 50% inhibition at 10 µM

Q: With `N[C@@H](Cn1ccc(=O)c(O)c1)C(=O)O` [L-MIMOSINE] as the compound, how does the IC50 read?
A: Its IC50 is “Not Active”.

Q: `C[N+](C)(C)C[C@H](O)CC(=O)[O-]` [LEVOCARNITINE] was tested. Which IC50 did it give?
A: Its IC50 is “Not Active”.

Q: How did the IC50 turn out when `C[C@H]1COc2c(N3CCN(C)CC3)c(F)cc3c(=O)c(C(=O)O)cn1c23.C[C@H]1COc2c(N3CCN(C)CC3)c(F)cc3c(=O)c(C(=O)O)cn1c23.O` [LEVOFLOXACIN] was run?
A: Its IC50 is “Not Active”.

Q: How did the IC50 turn out when `CCn1cc(C(=O)O)c(=O)c2cc(F)c(N3CCNC(C)C3)c(F)c21` (stereo not drawn) [LOMEFLOXACIN] was run?
A: Its IC50 is “Not Active”.

Q: `CN1CCCC(CN2c3ccccc3Sc3ccccc32)C1` (stereo not drawn) [MEPAZINE] was tested. Which IC50 did it give?
A: The IC50 was “Not Active”.

Q: For `Cc1cccc(C)c1NC(=O)C1CCCCN1C` (stereo not drawn) [MEPIVACAINE], which IC50 is on record?
A: The IC50 was “Not Active”.

Q: For `CN(C)C(=N)NC(=N)N` [METFORMIN], which IC50 is on record?
A: The IC50 was “Not Active”.

Q: How did the IC50 turn out when `CC(C)(C)NCC(O)COc1cccc2c1CC(O)C(O)C2` (stereo not drawn) [NADOLOL] was run?
A: The IC50 was “Not Active”.

Target: Acetylcholinesterase (Homo sapiens, UniProt P22303)
Sequence (P22303 whole entry): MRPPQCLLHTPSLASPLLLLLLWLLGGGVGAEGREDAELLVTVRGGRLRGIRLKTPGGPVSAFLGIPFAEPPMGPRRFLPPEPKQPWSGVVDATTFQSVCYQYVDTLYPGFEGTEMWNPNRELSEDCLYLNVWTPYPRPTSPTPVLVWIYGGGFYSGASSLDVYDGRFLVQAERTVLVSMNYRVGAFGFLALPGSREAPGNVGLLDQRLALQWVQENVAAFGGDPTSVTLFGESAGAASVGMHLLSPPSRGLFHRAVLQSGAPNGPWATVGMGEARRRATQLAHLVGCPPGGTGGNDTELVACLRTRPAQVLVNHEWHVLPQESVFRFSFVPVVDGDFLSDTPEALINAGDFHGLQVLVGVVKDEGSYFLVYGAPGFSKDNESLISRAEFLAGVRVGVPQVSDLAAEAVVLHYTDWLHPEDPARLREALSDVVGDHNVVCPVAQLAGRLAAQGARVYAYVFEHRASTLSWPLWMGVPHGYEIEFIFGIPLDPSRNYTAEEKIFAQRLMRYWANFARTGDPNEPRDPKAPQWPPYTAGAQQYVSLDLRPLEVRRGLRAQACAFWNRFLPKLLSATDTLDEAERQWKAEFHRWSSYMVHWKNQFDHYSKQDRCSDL
Test: DRUGMATRIX: Acetylcholinesterase enzyme inhibition (substrate: acetylthiocholine)
Type: cell-based, HEK293
Settings: hek293; Not Active = under 50% inhibition at 10 µM

Q: `N[C@@H](Cn1ccc(=O)c(O)c1)C(=O)O` [L-MIMOSINE] was tested. Which IC50 did it give?
A: The IC50 was “Not Active”.

Q: For `C[N+](C)(C)C[C@H](O)CC(=O)[O-]` [LEVOCARNITINE], which IC50 is on record?
A: The IC50 was “Not Active”.

Q: With `C[C@H]1COc2c(N3CCN(C)CC3)c(F)cc3c(=O)c(C(=O)O)cn1c23.C[C@H]1COc2c(N3CCN(C)CC3)c(F)cc3c(=O)c(C(=O)O)cn1c23.O` [LEVOFLOXACIN] as the compound, how does the IC50 read?
A: Its IC50 is “Not Active”.

Q: Which IC50 does the source give for `CCn1cc(C(=O)O)c(=O)c2cc(F)c(N3CCNC(C)C3)c(F)c21` (stereo not drawn) [LOMEFLOXACIN] here?
A: The IC50 was “Not Active”.

Q: Which IC50 does the source give for `CN1CCCC(CN2c3ccccc3Sc3ccccc32)C1` (stereo not drawn) [MEPAZINE] here?
A: The IC50 was “Not Active”.

Q: How did the IC50 turn out when `Cc1cccc(C)c1NC(=O)C1CCCCN1C` (stereo not drawn) [MEPIVACAINE] was run?
A: Its IC50 is “Not Active”.

Q: With `CN(C)C(=N)NC(=N)N` [METFORMIN] as the compound, how does the IC50 read?
A: Its IC50 is “Not Active”.

Q: How did the IC50 turn out when `CC(C)(C)NCC(O)COc1cccc2c1CC(O)C(O)C2` (stereo not drawn) [NADOLOL] was run?
A: The IC50 was “Not Active”.

Target: T1, Alpha-2C adrenergic receptor (Homo sapiens, UniProt P18825)
T1 sequence (P18825 whole entry): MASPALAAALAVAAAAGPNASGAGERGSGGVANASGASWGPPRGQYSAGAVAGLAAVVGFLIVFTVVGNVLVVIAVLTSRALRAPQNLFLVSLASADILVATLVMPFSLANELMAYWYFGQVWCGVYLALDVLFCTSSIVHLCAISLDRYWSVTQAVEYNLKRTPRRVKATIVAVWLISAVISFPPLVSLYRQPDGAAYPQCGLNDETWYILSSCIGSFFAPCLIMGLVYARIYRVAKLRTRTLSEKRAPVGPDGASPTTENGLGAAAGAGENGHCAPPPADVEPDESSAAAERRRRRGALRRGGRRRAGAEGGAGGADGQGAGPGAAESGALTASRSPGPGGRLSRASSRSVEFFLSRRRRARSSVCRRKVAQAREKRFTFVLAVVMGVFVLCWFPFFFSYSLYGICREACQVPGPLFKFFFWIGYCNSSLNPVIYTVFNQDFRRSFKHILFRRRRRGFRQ
Test: DRUGMATRIX: Adrenergic Alpha-2C radioligand binding (ligand: [3H] MK-912)
Type: cell membranes, Sf9, Membrane
Settings: sf9

Q: Which IC50 does the source give for `N[C@@H](Cn1ccc(=O)c(O)c1)C(=O)O` [L-MIMOSINE] here?
A: Its IC50 is “Not Active”.

Q: For `C[N+](C)(C)C[C@H](O)CC(=O)[O-]` [LEVOCARNITINE], which IC50 is on record?
A: The IC50 was “Not Active”.

Q: With `C[C@H]1COc2c(N3CCN(C)CC3)c(F)cc3c(=O)c(C(=O)O)cn1c23.C[C@H]1COc2c(N3CCN(C)CC3)c(F)cc3c(=O)c(C(=O)O)cn1c23.O` [LEVOFLOXACIN] as the compound, how does the IC50 read?
A: The IC50 was “Not Active”.

Q: How did the IC50 turn out when `CCn1cc(C(=O)O)c(=O)c2cc(F)c(N3CCNC(C)C3)c(F)c21` (stereo not drawn) [LOMEFLOXACIN] was run?
A: The IC50 was “Not Active”.

Q: How did the IC50 turn out when `CN1CCCC(CN2c3ccccc3Sc3ccccc32)C1` (stereo not drawn) [MEPAZINE] was run?
A: Its IC50 is “Not Active”.

Q: `Cc1cccc(C)c1NC(=O)C1CCCCN1C` (stereo not drawn) [MEPIVACAINE] was tested. Which IC50 did it give?
A: Its IC50 is “Not Active”.

Q: Which IC50 does the source give for `CN(C)C(=N)NC(=N)N` [METFORMIN] here?
A: The IC50 was “Not Active”.

Q: How did the IC50 turn out when `CC(C)(C)NCC(O)COc1cccc2c1CC(O)C(O)C2` (stereo not drawn) [NADOLOL] was run?
A: Its IC50 is “Not Active”.

Target: T2, Cathepsin G (Homo sapiens, UniProt P08311);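 note: inhibition of Cathepsin G enzyme activity, tested on an AMC-conjugated peptide substrate; in other assays of this panel Not Active means under 50% inhibition at 10 µM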
T2 sequence (P08311 whole entry): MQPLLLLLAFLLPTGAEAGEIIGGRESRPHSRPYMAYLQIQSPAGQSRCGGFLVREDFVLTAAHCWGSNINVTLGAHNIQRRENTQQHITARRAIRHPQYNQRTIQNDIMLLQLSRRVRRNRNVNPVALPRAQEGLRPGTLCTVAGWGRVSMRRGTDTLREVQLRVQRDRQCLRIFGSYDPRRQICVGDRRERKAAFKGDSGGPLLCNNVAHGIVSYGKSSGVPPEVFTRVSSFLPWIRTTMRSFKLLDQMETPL
Type: tissue-based
Settings: neutrophil

Q: With `N[C@@H](Cn1ccc(=O)c(O)c1)C(=O)O` [L-MIMOSINE] as the compound, how does the IC50 read?
A: The IC50 was “Not Active”.

Q: How did the IC50 turn out when `C[N+](C)(C)C[C@H](O)CC(=O)[O-]` [LEVOCARNITINE] was run?
A: Its IC50 is “Not Active”.

Q: With `C[C@H]1COc2c(N3CCN(C)CC3)c(F)cc3c(=O)c(C(=O)O)cn1c23.C[C@H]1COc2c(N3CCN(C)CC3)c(F)cc3c(=O)c(C(=O)O)cn1c23.O` [LEVOFLOXACIN] as the compound, how does the IC50 read?
A: The IC50 was “Not Active”.

Q: `CCn1cc(C(=O)O)c(=O)c2cc(F)c(N3CCNC(C)C3)c(F)c21` (stereo not drawn) [LOMEFLOXACIN] was tested. Which IC50 did it give?
A: The IC50 was “Not Active”.

Q: How did the IC50 turn out when `CN1CCCC(CN2c3ccccc3Sc3ccccc32)C1` (stereo not drawn) [MEPAZINE] was run?
A: Its IC50 is “Not Active”.

Q: How did the IC50 turn out when `Cc1cccc(C)c1NC(=O)C1CCCCN1C` (stereo not drawn) [MEPIVACAINE] was run?
A: Its IC50 is “Not Active”.

Q: How did the IC50 turn out when `CN(C)C(=N)NC(=N)N` [METFORMIN] was run?
A: Its IC50 is “Not Active”.

Q: Which IC50 does the source give for `CC(C)(C)NCC(O)COc1cccc2c1CC(O)C(O)C2` (stereo not drawn) [NADOLOL] here?
A: The IC50 was “Not Active”.

Target: T3, Cholecystokinin receptor type A (Homo sapiens, UniProt P32238); note: in other assays of this panel Not Active means under 50% inhibition at 10 µM
T3 sequence (P32238 whole entry): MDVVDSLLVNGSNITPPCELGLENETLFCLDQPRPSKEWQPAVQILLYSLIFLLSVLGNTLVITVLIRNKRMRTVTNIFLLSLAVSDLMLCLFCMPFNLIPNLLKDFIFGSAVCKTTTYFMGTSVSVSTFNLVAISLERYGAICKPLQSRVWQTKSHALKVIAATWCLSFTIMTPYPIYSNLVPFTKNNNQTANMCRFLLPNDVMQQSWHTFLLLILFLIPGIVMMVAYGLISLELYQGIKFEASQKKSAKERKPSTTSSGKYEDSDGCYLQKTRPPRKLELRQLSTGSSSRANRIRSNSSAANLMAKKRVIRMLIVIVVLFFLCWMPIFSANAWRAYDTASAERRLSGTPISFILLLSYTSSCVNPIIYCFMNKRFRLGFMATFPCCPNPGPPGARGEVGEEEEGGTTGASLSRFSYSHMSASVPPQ
Type: cell membranes, Membrane
Settings: 1321-n1

Q: Which IC50 does the source give for `N[C@@H](Cn1ccc(=O)c(O)c1)C(=O)O` [L-MIMOSINE] here?
A: The IC50 was “Not Active”.

Q: For `C[N+](C)(C)C[C@H](O)CC(=O)[O-]` [LEVOCARNITINE], which IC50 is on record?
A: Its IC50 is “Not Active”.

Q: With `C[C@H]1COc2c(N3CCN(C)CC3)c(F)cc3c(=O)c(C(=O)O)cn1c23.C[C@H]1COc2c(N3CCN(C)CC3)c(F)cc3c(=O)c(C(=O)O)cn1c23.O` [LEVOFLOXACIN] as the compound, how does the IC50 read?
A: Its IC50 is “Not Active”.

Q: Which IC50 does the source give for `CCn1cc(C(=O)O)c(=O)c2cc(F)c(N3CCNC(C)C3)c(F)c21` (stereo not drawn) [LOMEFLOXACIN] here?
A: Its IC50 is “Not Active”.

Q: Which IC50 does the source give for `CN1CCCC(CN2c3ccccc3Sc3ccccc32)C1` (stereo not drawn) [MEPAZINE] here?
A: The IC50 was “Not Active”.

Q: With `Cc1cccc(C)c1NC(=O)C1CCCCN1C` (stereo not drawn) [MEPIVACAINE] as the compound, how does the IC50 read?
A: Its IC50 is “Not Active”.

Q: How did the IC50 turn out when `CN(C)C(=N)NC(=N)N` [METFORMIN] was run?
A: The IC50 was “Not Active”.

Q: `CC(C)(C)NCC(O)COc1cccc2c1CC(O)C(O)C2` (stereo not drawn) [NADOLOL] was tested. Which IC50 did it give?
A: The IC50 was “Not Active”.

— ChEMBL document CHEMBL1909046, “DrugMatrix in vitro pharmacology data”
